Measured values as given in PubChem BioAssay (NCI).
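96-well plates; 48 h exposure; 5 concentrations. Endpoints by linear interpolation between flanking doses. Not reached: highest tested concentration assigned. The concentration for 50% growth inhibition is given as GI50. Definition used: TGI = concentration required for complete inhibition of growth.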

Legend:
Assay in all cases: NCI-60 cell line screen, 48 h
786-0 renal = system: 786-0 renal
NCI-H226 lung = system: NCI-H226 lung
UACC-257 melanoma = system: UACC-257 melanoma
A549 NSCLC = system: A549 NSCLC
RXF 393 renal = system: RXF 393 renal
T-47D breast = system: T-47D breast
PC-3 prostate = system: PC-3 prostate
MDA-MB-231 breast = system: MDA-MB-231 breast
SK-OV-3 ovarian = system: SK-OV-3 ovarian
SNB-19 CNS = system: SNB-19 CNS
M14 melanoma = system: M14 melanoma
SF-295 CNS = system: SF-295 CNS
EKVX NSCLC = system: EKVX NSCLC
IGROV1 ovarian = system: IGROV1 ovarian
HOP-62 NSCLC = system: HOP-62 NSCLC
UO-31 renal = system: UO-31 renal
OVCAR-4 ovarian = system: OVCAR-4 ovarian
CCRF-CEM leukemia = system: CCRF-CEM leukemia
SF-268 CNS = system: SF-268 CNS
CAKI-1 renal = system: CAKI-1 renal
SF-539 CNS = system: SF-539 CNS
HT29 colon = system: HT29 colon
HOP-92 NSCLC = system: HOP-92 NSCLC
NCI-H460 lung = system: NCI-H460 lung
KM12 colon = system: KM12 colon
MOLT-4 leukemia = system: MOLT-4 leukemia
LOX IMVI melanoma = system: LOX IMVI melanoma
HCT-116 colon = system: HCT-116 colon
OVCAR-3 ovarian = system: OVCAR-3 ovarian
MDA-MB-468 breast = system: MDA-MB-468 breast
OVCAR-5 ovarian = system: OVCAR-5 ovarian
COLO 205 colon = system: COLO 205 colon
UACC-62 melanoma = system: UACC-62 melanoma
HCC-2998 colon = system: HCC-2998 colon
NCI-H23 lung = system: NCI-H23 lung
RPMI-8226 leukemia = system: RPMI-8226 leukemia
HS 578T breast = system: HS 578T breast
HL-60(TB) leukemia = system: HL-60(TB) leukemia
SNB-75 CNS = system: SNB-75 CNS
NCI-H522 lung = system: NCI-H522 lung
OVCAR-8 ovarian = system: OVCAR-8 ovarian
TK-10 renal = system: TK-10 renal
HCT-15 colon = system: HCT-15 colon
ACHN renal = system: ACHN renal
A498 renal = system: A498 renal
DU-145 prostate = system: DU-145 prostate
MALME-3M melanoma = system: MALME-3M melanoma
SK-MEL-5 melanoma = system: SK-MEL-5 melanoma
BT-549 breast = system: BT-549 breast
U251 CNS = system: U251 CNS
SR leukemia = system: SR leukemia
SK-MEL-28 melanoma = system: SK-MEL-28 melanoma
K-562 leukemia = system: K-562 leukemia
SN12C renal = system: SN12C renal
SW-620 colon = system: SW-620 colon
MCF7 breast = system: MCF7 breast
SK-MEL-2 melanoma = system: SK-MEL-2 melanoma

With `Oc1ccc(/C=C2\CCCc3cc4ccc(O)cc4[o+]c32)c(O)c1` the GI50 (786-0 renal) was 8.21 µM, the TGI (786-0 renal) was greater than 100 µM and the GI50 (NCI-H226 lung) was 26.6 µM. The TGI (NCI-H226 lung) was greater than 100 µM, the GI50 (UACC-257 melanoma) was 15.3 µM and the TGI (UACC-257 melanoma) was greater than 100 µM. The GI50 (A549 NSCLC) was 44.2 µM, the TGI (A549 NSCLC) was greater than 100 µM and the GI50 (RXF 393 renal) was 2.26 µM. For the same molecule, the TGI (RXF 393 renal) was 10.8 µM, the GI50 (T-47D breast) was 5.23 µM and the TGI (T-47D breast) was greater than 100 µM. It also gave a GI50 (PC-3 prostate) of 4.09 µM, a TGI (PC-3 prostate) greater than 100 µM and a GI50 (MDA-MB-231 breast) of 3.99 µM. For the same molecule, the TGI (MDA-MB-231 breast) was 33.1 µM, the GI50 (SK-OV-3 ovarian) was 27.2 µM and the TGI (SK-OV-3 ovarian) was greater than 100 µM. For the same molecule, the GI50 (SNB-19 CNS) was 24.9 µM, the TGI (SNB-19 CNS) was greater than 100 µM and the GI50 (M14 melanoma) was 6.7 µM. The TGI (M14 melanoma) was greater than 100 µM, the GI50 (SF-295 CNS) was 19.7 µM and the TGI (SF-295 CNS) was greater than 100 µM. For the same molecule, the GI50 (EKVX NSCLC) was 8.82 µM, the TGI (EKVX NSCLC) was greater than 100 µM and the GI50 (IGROV1 ovarian) was 18.9 µM. For the same molecule, the TGI (IGROV1 ovarian) was 78.1 µM, the GI50 (HOP-62 NSCLC) was 44.2 µM and the TGI (HOP-62 NSCLC) was greater than 100 µM. It also gave a GI50 (UO-31 renal) of 7.23 µM, a TGI (UO-31 renal) of 59.9 µM and a GI50 (OVCAR-4 ovarian) of 16.5 µM. The TGI (OVCAR-4 ovarian) was greater than 100 µM, the GI50 (CCRF-CEM leukemia) was 3.56 µM and the TGI (CCRF-CEM leukemia) was greater than 100 µM. It also gave a GI50 (SF-268 CNS) of 6.81 µM, a TGI (SF-268 CNS) greater than 100 µM and a GI50 (CAKI-1 renal) of 5.25 µM. It also gave a TGI (CAKI-1 renal) greater than 100 µM, a GI50 (SF-539 CNS) of 7.04 µM and a TGI (SF-539 CNS) of 42 µM. For the same molecule, the GI50 (HT29 colon) was 17.9 µM, the TGI (HT29 colon) was 46.6 µM and the GI50 (HOP-92 NSCLC) was 6.43 µM. It also gave a TGI (HOP-92 NSCLC) greater than 100 µM, a GI50 (NCI-H460 lung) of 5.14 µM and a TGI (NCI-H460 lung) of 42.2 µM. It also gave a GI50 (KM12 colon) of 3.3 µM, a TGI (KM12 colon) of 13.7 µM and a GI50 (MOLT-4 leukemia) of 3.06 µM. It also gave a TGI (MOLT-4 leukemia) greater than 100 µM, a GI50 (LOX IMVI melanoma) of 2.95 µM and a TGI (LOX IMVI melanoma) of 12.5 µM. For the same molecule, the GI50 (HCT-116 colon) was 3.82 µM, the TGI (HCT-116 colon) was greater than 100 µM and the GI50 (OVCAR-3 ovarian) was 3.39 µM. The TGI (OVCAR-3 ovarian) was 14.7 µM, the GI50 (MDA-MB-468 breast) was 1.99 µM and the TGI (MDA-MB-468 breast) was 6.46 µM. The GI50 (OVCAR-5 ovarian) was 53.1 µM, the TGI (OVCAR-5 ovarian) was greater than 100 µM and the GI50 (COLO 205 colon) was 15.2 µM. For the same molecule, the TGI (COLO 205 colon) was 44.5 µM, the GI50 (UACC-62 melanoma) was 5.02 µM and the TGI (UACC-62 melanoma) was 26 µM. It also gave a GI50 (HCC-2998 colon) of 6.29 µM, a TGI (HCC-2998 colon) of 20.4 µM and a GI50 (NCI-H23 lung) of 11.7 µM. The TGI (NCI-H23 lung) was greater than 100 µM, the GI50 (RPMI-8226 leukemia) was 4.93 µM and the TGI (RPMI-8226 leukemia) was greater than 100 µM. For the same molecule, the GI50 (HS 578T breast) was 2.68 µM, the TGI (HS 578T breast) was greater than 100 µM and the GI50 (HL-60(TB) leukemia) was 2.65 µM. For the same molecule, the TGI (HL-60(TB) leukemia) was 57.3 µM, the GI50 (SNB-75 CNS) was 2.88 µM and the TGI (SNB-75 CNS) was 65.6 µM. The GI50 (NCI-H522 lung) was 2.51 µM, the TGI (NCI-H522 lung) was 11.2 µM and the GI50 (OVCAR-8 ovarian) was 6.91 µM. For the same molecule, the TGI (OVCAR-8 ovarian) was greater than 100 µM, the GI50 (TK-10 renal) was 47.2 µM and the TGI (TK-10 renal) was greater than 100 µM. The GI50 (HCT-15 colon) was 3.27 µM, the TGI (HCT-15 colon) was 11.2 µM and the GI50 (ACHN renal) was 6.1 µM. The TGI (ACHN renal) was greater than 100 µM, the GI50 (A498 renal) was greater than 100 µM and the TGI (A498 renal) was greater than 100 µM. For the same molecule, the GI50 (DU-145 prostate) was 22.2 µM, the TGI (DU-145 prostate) was greater than 100 µM and the GI50 (MALME-3M melanoma) was 4.77 µM. The TGI (MALME-3M melanoma) was 40.3 µM, the GI50 (SK-MEL-5 melanoma) was 5.74 µM and the TGI (SK-MEL-5 melanoma) was 19.9 µM. For the same molecule, the GI50 (BT-549 breast) was 5.75 µM, the TGI (BT-549 breast) was greater than 100 µM and the GI50 (U251 CNS) was 4.16 µM. It also gave a TGI (U251 CNS) of 41.3 µM, a GI50 (SR leukemia) of 3.09 µM and a TGI (SR leukemia) greater than 100 µM. It also gave a GI50 (SK-MEL-28 melanoma) of 12.3 µM, a TGI (SK-MEL-28 melanoma) of 52.4 µM and a GI50 (K-562 leukemia) of 4.03 µM. It also gave a TGI (K-562 leukemia) greater than 100 µM, a GI50 (SN12C renal) of 29.9 µM and a TGI (SN12C renal) greater than 100 µM. It also gave a GI50 (SW-620 colon) of 3.87 µM, a TGI (SW-620 colon) of 69.2 µM and a GI50 (MCF7 breast) of 2.68 µM. It also gave a TGI (MCF7 breast) of 70.8 µM, a GI50 (SK-MEL-2 melanoma) of 12.2 µM and a TGI (SK-MEL-2 melanoma) of 58.6 µM.
